Like-named read-outs stand apart in the source and are kept apart here. Non-standard residues stand in square brackets, D forms with d. Residues, ends and D or L forms follow the SMILES beside them. Dmt = Cc1cc(O)cc(C)c1C[C@H](N)C(=O)O
Tests used:
[1] = in vivo; conditions: male, mouse, ip, 30 mg/kg
Method: For PK evaluation, SS-31 was administered i.p. to male mice in suspension (gelatine/saline 7.5%/0.62% in water) using an administration volume of 4 ml/kg. Blood samples were collected in tubes containing EDTA as an anticoagulant, and plasma was separated by centrifugation and stored at −80°C. Liver and kidney samples (∼100 mg aliquots) were homogenized in three volumes of water using Precellys tissue homogenization tubes (precellys.com). Twenty-five microliters of each tissue homogenate was further diluted with 25 µl blank plasma to produce the final tissue homogenate for extraction. Prepared samples were stored at −20°C before analysis.
All samples were analyzed using protein precipitation followed by LC-MS/MS analysis. Briefly, 50 µl plasma or final tissue homogenate was mixed with 50 µl 0.5 M HClO4/acetonitrile 9/1 (containing 200 ng/ml bosentan as an internal standard). Samples were stirred and 300 µl water was added, followed by centrifugation at 5600 rpm (4°C, 10 min). Ten microliters of supernatant was analyzed by LC/MS. Calibration standards in plasma were prepared the same way. The LC columns and conditions used were as follows: Phenomenex, Polar RP, 4 µm, and 50 × 2.1 mm at 0.4-ml/min flow rate with a 3-min gradient from 95% solvent A to 95% solvent B (solvent A: water/acetonitrile/HCOOH, 90:10:0.1 with 10 mM NH4 formate; solvent B: water/ACN/HCOOH, 10:90:0.1 with 10 mM NH4 formate). Mass spectrometric conditions were as follows: Thermo TSQ Vantage with positive heated electrospray ionization in MS/MS mode. Mass transitions of the compounds were m/z 320.7 to 119.9. Relative concentrations of the drug and metabolites were established by the percentage of peak area ratio compared to time zero spiked compounds. PK parameters for all studies were calculated using Phoenix WinNonlin Software.

[2] = Stability in mouse plasma at 37°C; type: in vitro ADME
Method: Finally, we determined if α-Glu functionalization of SS-31 would improve the plasma stability of the compound. SS-31 or α-Glu-SS-31 (at 1 µM concentration) was added to heparinized mouse plasma, and the aliquots were incubated at 37°C for various time points before analysis ( Table 2 ). After a rapid decrease of α-Glu-SS-31 concentration, associated with the appearance of free SS-31, in mouse plasma, the concentration of both compounds remained stable for up to 5 h, whereas SS-31 concentration decreased regularly during the same period of time.

[3] = molecular target: T1, aminopeptidase A (APA) (Rattus norvegicus, UniProt P50123); assay: APA enzymatic activity in intact living EC219 cells (α-Glu-AMC substrate); type: cell-based
T1 construct: These cells express high levels of APA and γ-GT activities and can be used to measure kinetics in living cells; endogenous in cells; host or cells: EC219 rat brain-derived endothelial cells
Method: The preparation and characterization of rat brain-derived EC219 endothelial cells were previously described ([Juillerat-Jeanneret et al., 1992]). These cells express high levels of APA and γ-GT activities and can be used to measure kinetics in living cells as APA and γ-GT-positive representative cell models. The cells were grown in Dulbecco’s modified Eagle medium (DMEM) containing 1 g/L glucose, 10% heat-inactivated fetal calf serum (FCS), and antibiotics on uncoated cell culture plastic plates and flasks. MDCK and LLCPK cells were obtained from the American Tissue Culture Collection (ATCC, Manassas, VA, USA) and were grown in DMEM containing 4.5 g/L glucose, 10% FCS, and antibiotics. mCCD, and mDCT cells were a kind gift from O. Bonny (UNIL, Lausanne, Switzerland) and were cultured in DMEM (Ham’s F12 1:1 vol/vol, 60 nM sodium selenate, 5 μg/ml transferrin, 50 nM dexamethasone, 1 nM triiodothyronine, 10 ng/ml epidermal growth factor, 5 μg/ml insulin) and 2% FCS. The characteristics of the used cell lines are shown in Supplementary Table S2 .
Stock solutions of α-Glu-AMC (APA) and γ-Glu-AMC and Gly-Gly (γ-GT) substrates, all from Bachem, were prepared at 10 mM in DMSO. EC219 cells were grown to confluence in 96-well plates (Corning, NY, USA), then the culture medium was removed, and the cell layers washed once with 100 µl PBS and 100 µl of substrates at decreasing concentrations (320–10 µM) of α-Glu-AMC or γ-Glu-AMC and 20 mM Gly-Gly substrates diluted in PBS and increasing concentrations (0–20 µM) of SS-31 analogs were added. The increase in […] was measured at 37°C in a thermostated fluorescence multiwell-plate reader (CytoFluor Series 4000; PerSeptive Biosystems, MA, USA) at λex = 360 nm/λem = 460 nm using the linear portion of the curves. The kinetics values were then graphically determined or according to Wu and colleagues ([Wu et al., 2011]).
(A) Intact living EC219 cells were exposed to increasing concentrations of either amastatin (left panel) or acivicin (right panel), two well-characterized enzymatic activity inhibitors of APA or γ-GT, respectively. The activities of the enzymes aminopeptidase A (APA) or γ-glutamyltranspeptidase (γ-GT) were determined using 40 µM of the substrates (S), α-Glu-AMC or γ-Glu-AMC, respectively. (B) Intact living EC219 cells were exposed to increasing concentrations [10-320 µM] of the APA α-Glu-AMC substrate, in the presence of increasing concentrations of SS-31 or α-Glu-SS-31, and the increase of free AMC fluorescence was recorded. Data were analyzed graphically. (DMSO 0.2% was present in all samples).

T1 sequence (P50123 whole entry): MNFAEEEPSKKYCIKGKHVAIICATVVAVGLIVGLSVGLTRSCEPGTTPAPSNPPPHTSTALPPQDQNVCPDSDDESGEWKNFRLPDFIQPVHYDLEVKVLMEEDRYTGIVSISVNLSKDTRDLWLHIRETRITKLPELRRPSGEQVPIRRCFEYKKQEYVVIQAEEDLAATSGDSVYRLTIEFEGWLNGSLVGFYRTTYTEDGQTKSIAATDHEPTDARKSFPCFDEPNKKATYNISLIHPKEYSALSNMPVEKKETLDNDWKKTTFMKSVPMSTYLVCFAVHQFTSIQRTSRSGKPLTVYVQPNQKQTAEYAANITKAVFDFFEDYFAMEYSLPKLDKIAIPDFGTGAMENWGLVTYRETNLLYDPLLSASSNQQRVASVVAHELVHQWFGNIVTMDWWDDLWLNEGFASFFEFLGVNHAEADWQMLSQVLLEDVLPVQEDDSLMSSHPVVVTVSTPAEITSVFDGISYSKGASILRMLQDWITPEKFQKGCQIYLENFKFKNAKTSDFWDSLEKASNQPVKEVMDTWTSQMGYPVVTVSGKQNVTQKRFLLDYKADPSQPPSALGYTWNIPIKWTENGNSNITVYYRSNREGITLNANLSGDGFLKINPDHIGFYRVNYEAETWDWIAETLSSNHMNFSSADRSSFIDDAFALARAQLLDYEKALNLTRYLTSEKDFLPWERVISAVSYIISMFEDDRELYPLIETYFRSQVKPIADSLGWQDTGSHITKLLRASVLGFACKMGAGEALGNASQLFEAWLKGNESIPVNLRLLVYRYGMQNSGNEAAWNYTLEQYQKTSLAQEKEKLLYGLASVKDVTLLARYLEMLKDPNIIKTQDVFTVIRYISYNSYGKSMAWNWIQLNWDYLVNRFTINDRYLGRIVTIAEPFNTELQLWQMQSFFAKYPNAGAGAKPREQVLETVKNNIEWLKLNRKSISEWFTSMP

`Cc1cc(O)cc(C)c1C[C@H](NC(=O)[C@H](N)CCCNC(=N)N)C(=O)N[C@@H](CCCCN)C(=O)N[C@@H](Cc1ccccc1)C(N)=O` [SS-31, D-Arg-dimethylTyr-Lys-Phe-NH2] (H-[dR][Dmt]KF-NH2) gave an AUC(0-inf) ([1]; kidney) of 31300 ng·h/mL, an AUC(0-t) ([1]; kidney) of 27800 ng·h/mL and a Cmax ([1]; kidney) of 17200 ng/mL. For the same compound, the Tmax ([1]; kidney) was 1 h, the half-life ([1]; kidney) was 1.1 h and the level at time molar ([1]; kidney) was ~140 nM. The AUC(0-inf) ([1]; liver) was 22100 ng·h/mL, the AUC(0-t) ([1]; liver) was 20700 ng·h/mL and the Cmax ([1]; liver) was 12700 ng/mL. The Tmax ([1]; liver) was 1 h, the half-life ([1]; liver) was 0.9 h and the AUC(0-inf) ([1]; plasma) was 21100 ng·h/mL. The AUC(0-t) ([1]; plasma) was 21100 ng·h/mL, the Cmax ([1]; plasma) was 20000 ng/mL and the Tmax ([1]; plasma) was 1 h. The half-life ([1]; plasma) was 0.3 h, the “Stability [% of T0]” value ([2]; 1 μM, time 0 h) was 100% and the remaining at 0.5 h, 1 µM ([2]; heparinized mouse plasma, time 0.5 h, read-out: Stability [% of T0]) was 89.3%. It also gave a remaining at 1 h, 1 µM ([2]; heparinized mouse plasma, time 1 h, read-out: Stability [% of T0]) of 85.3%, a remaining at 3 h, 1 µM ([2]; heparinized mouse plasma, time 3 h, read-out: Stability [% of T0]) of 50.1% and a remaining at 5 h, 1 µM ([2]; heparinized mouse plasma, time 5 h, read-out: Stability [% of T0]) of 43%. It also gave an IC50 [3] of 8.5 ± 3.8 µM.

With `CC(C)C[C@@H](N)[C@H](O)C(=O)N[C@H](C(=O)N[C@H](C(=O)N[C@@H](CC(=O)O)C(=O)O)C(C)C)C(C)C` [amastatin] the IC50 ([3]; intact living EC219 cells, 40 µM α-Glu-AMC, read-out: IC50 APA) was < 1 µM.
